Laboratory results from patent US11633447B2, “Pharmaceutical composition and functional health food for preventing or treating macular degeneration” (LEMONEX INC., priority 2018, dated 2023).

Legend:
[1] = system: ARPE-19 cells; test: Retinal pigment epithelial cell protection against blue light-induced photooxidation after A2E accumulation (cell counting kit-8 viability); type: cell-based; details: 17.04 μg/mL (30 μM) for 24 hours; 20 μM A2E; blue light 4,000 lux 10 minutes; difference control vs blue light group set to 100%
Experimental: Since it is already known that photooxidation occurs when retinal pigment epithelial cells accumulated with A2E are irradiated with blue light, it was confirmed whether cytotoxicity derived by irradiation with blue light after 20 μM A2E accumulation in ARPE-19 cells could be suppressed using the banaba leaf extract, guava leaf extract, and the mixture thereof. Specifically, all ARPE-19 cells were treated with A2E at a concentration of 20 μM for 24 hours, and then treated with 100 μg/mL of the banaba leaf extract, the guava leaf extract, and the mixture thereof in Example 1, respectively, or 17.04 μg/mL (30 μM) of lutein for 24 hours. Thereafter, the treated cells were irradiated with blue light (4,000 lux) for 10 minutes. 24 hours after blue light irradiation, cell viability of ARPE-19 cells was measured by a cell counting kit-8 (Dojindo Labs, Japan), and the percentage of cell viability of each treatment group was compared to the control not irradiated with blue light. Lutein was used as a positive control. […] By setting a difference in cell viability between the control not irradiated with blue light and the blue light irradiated group to be 100%, cell protective effects of each extract were estimated by calculating cell protective effects through a difference in cell viability between the blue light irradiated group and the treated group. […]

[2] = system: Balb-c mice; test: Blue light-induced macular degeneration animal model, thickness of outer nuclear layer (ONL) by H&E staining; type: in vivo; details: oral, once daily, 50 mg/kg, blue light 10,000 lux 1 hour per day for 14 days
Experimental: Balb-c mice (5 weeks old, males) were acclimated and bred for 2 days, and then orally administered with each of the banaba leaf extract, the guava leaf extract, the mixture thereof or lutein (50 mg/kg) once daily for 7 days. Then, after 24 hours of dark acclimatization, each of the extracts and the mixture and lutein was orally administered for 14 days, and 30 minutes later, followed by blue light irradiation at 10,000 lux for 1 hour per day. 24 hours after the blue light irradiation and the end of administration of the extract, the mice were sacrificed to an extract eyeball, and then, retinal cell protective effects were determined through tissue staining (FIG. 4).
The extracted eyeball tissue was fixed with a neutral buffered formalin solution. The fixed eyeball was washed with running water and was subjected to a dehydration process using alcohol. Thereafter, a clearing process was performed using Xylene, and proper rigidity was given to the tissue using paraffin. The eyeball was made into a predetermined shape of paraffin block, and then cut to 4 μm thickness. The cut eyeball was subjected to hematoxylin & eosin (H & E) staining. […] Then, a thickness of the outer nuclear layer (ONL) of the visual cell was measured by Image J software (National Institute of Health, […], Md., USA)), followed by counting the number of nuclei. […]

## CC1=C[C@H](O)CC(C)(C)[C@H]1/C=C/C(C)=C/C=C/C(C)=C/C=C/C=C(C)/C=C/C=C(C)/C=C/C1=C(C)C[C@@H](O)CC1(C)C [lutein]
[1]
  cell protective effect (cell viability): 48.4%
[2]
  ONL thickness change in administered groups: significantly increased ONL thickness
[2]; difference control vs blue light group set to 100%
  ONL protective effect (ONL thickness): 28.2%
